Data: PubChem BioAssay AID248 (DTP/NCI, 2004)
“And” between values parts separate entries of the source, which are not always exact repeats. Equal entries are not always repeated. Inconclusive results and toxic doses are left out. Rule as the data show it: active = T/C of 150% or more; inactive = T/C below 125%.

System: L1210 leukemia ip in BDF1 mice, survival T/C
Assay: NCI In Vivo Anticancer Drug Screen. Data for tumor model L1210 Leukemia (intraperitoneal) in B6D2F1 (BDF1) mice
Conditions: endpoint: mean survival time, higher = longer survival
Summary of the method: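 Ratio derived from survival: compound-dosed mice over vehicle-dosed mice, all bearing a transplantable tumor.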

[1] = dose: 100.0 mg/kg/injection, schedule: Q01DX009 (ip), vehicle: saline
[2] = dose: 100.0 mg/kg/injection, schedule: Q04DX003 (ip), vehicle: Klucel (hydroxypropylcellulose) (HPC)
[3] = dose: 200.0 mg/kg/injection, schedule: Q04DX003 (ip), vehicle: Klucel (hydroxypropylcellulose) (HPC)
[4] = dose: 400.0 mg/kg/injection, schedule: Q04DX003 (ip), vehicle: Klucel (hydroxypropylcellulose) (HPC)
[5] = dose: 50.0 mg/kg/injection, schedule: Q04DX003 (ip), vehicle: saline
[6] = dose: 100.0 mg/kg/injection, schedule: Q04DX003 (ip), vehicle: saline
[7] = dose: 200.0 mg/kg/injection, schedule: Q04DX003 (ip), vehicle: saline
[8] = dose: 100.0 mg/kg/injection, schedule: Q04DX003 (ip), vehicle: saline with Tween-80

Measured: T/C

CCOP(=O)(CCCCN1C(=O)c2ccccc2C1=O)OCC
inactive: dose: 31.3 mg/kg/injection, schedule: Q01DX Z (ip), vehicle: saline 101 % of control | dose: 62.5 mg/kg/injection, schedule: Q01DX Z (ip), vehicle: saline 100 % of control | dose: 125.0 mg/kg/injection, schedule: Q01DX Z (ip), vehicle: saline 103 % of control | dose: 250.0 mg/kg/injection, schedule: Q01DX Z (ip), vehicle: saline 103 % of control | dose: 500.0 mg/kg/injection, schedule: Q01DX Z (ip), vehicle: saline 92 % of control

CCC(=O)OC(CC=C(C)C)(c1ccccc1)C(C)CN(C)C (centres undefined)
inactive: [1] 100 % of control

CC(=O)NC1CCCCC1c1ccc(C2CCCCC2NC(C)=O)cc1 (centres undefined)
inactive: dose: 100.0 mg/kg/injection, schedule: Q01DX001 (ip), vehicle: saline 98 % of control | dose: 200.0 mg/kg/injection, schedule: Q01DX001 (ip), vehicle: saline 98 % of control

COc1cc2ccccc2cc1C(=O)NN
inactive: dose: 75.0 mg/kg/injection, schedule: Q04DX003 (ip), vehicle: Klucel (hydroxypropylcellulose) (HPC) 94 % of control | dose: 150.0 mg/kg/injection, schedule: Q04DX003 (ip), vehicle: Klucel (hydroxypropylcellulose) (HPC) 102 % of control | dose: 300.0 mg/kg/injection, schedule: Q04DX003 (ip), vehicle: Klucel (hydroxypropylcellulose) (HPC) 97 % of control

O=C(c1ccc(Br)cc1)C1C(c2ccccc2)N1C1CCCCC1 (centres undefined)
inactive: [2] 98 % of control | [3] 96 % of control | [4] 93 % of control

CC(=O)N1CCCC(=O)CCCCCCC1=O
inactive: [5] 95 % of control | [6] 103 % of control | [7] 88 % of control

BrC1C2C=CC(C2)C1Br (centres undefined)
inactive: [2] 102 % of control | [3] 100 % of control | [4] 92 % of control

CCOC(=O)/C=C(\N)c1ccccc1
inactive: dose: 100.0 mg/kg/injection, schedule: Q04DX002 (ip), vehicle: saline with Tween-80 102 % of control | dose: 200.0 mg/kg/injection, schedule: Q04DX002 (ip), vehicle: saline with Tween-80 108 % of control | dose: 400.0 mg/kg/injection, schedule: Q04DX002 (ip), vehicle: saline with Tween-80 91 % of control

CCCCCCCCCCCCCCCCCC[N+](C)(C)C (tested in a mixture with another compound)
inactive: dose: 0.2 mg/kg/injection, schedule: Q01DX015 (ip), vehicle: saline 104 % of control | dose: 0.5 mg/kg/injection, schedule: Q01DX015 (ip), vehicle: saline 98 % of control | dose: 1.0 mg/kg/injection, schedule: Q01DX009 (ip), vehicle: saline 108 % of control | dose: 1.0 mg/kg/injection, schedule: Q01DX015 (ip), vehicle: saline 104 % of control | dose: 2.0 mg/kg/injection, schedule: Q01DX009 (ip), vehicle: saline 100 % of control | dose: 2.0 mg/kg/injection, schedule: Q01DX015 (ip), vehicle: carboxymethylcellulose (CMC) 96 % of control | dose: 2.0 mg/kg/injection, schedule: Q01DX015 (ip), vehicle: saline 94 % of control and 103 % of control | dose: 3.0 mg/kg/injection, schedule: Q04DX003 (ip), vehicle: saline sonified 93 % of control | dose: 4.0 mg/kg/injection, schedule: Q01DX009 (ip), vehicle: saline 108 % of control | dose: 4.0 mg/kg/injection, schedule: Q01DX015 (ip), vehicle: carboxymethylcellulose (CMC) 93 % of control | dose: 4.0 mg/kg/injection, schedule: Q01DX015 (ip), vehicle: saline 96 % of control | dose: 5.0 mg/kg/injection, schedule: Q01DX015 (ip), vehicle: saline 103 % of control | dose: 6.0 mg/kg/injection, schedule: Q04DX003 (ip), vehicle: saline sonified 103 % of control | dose: 8.0 mg/kg/injection, schedule: Q01DX009 (ip), vehicle: saline 97 % of control | dose: 8.0 mg/kg/injection, schedule: Q01DX015 (ip), vehicle: saline 94 % of control | dose: 10.0 mg/kg/injection, schedule: Q01DX015 (ip), vehicle: saline 91 % of control | dose: 12.5 mg/kg/injection, schedule: Q01DX009 (ip), vehicle: saline 101 % of control | dose: 16.0 mg/kg/injection, schedule: Q04DX003 (ip), vehicle: saline 105 % of control | dose: 25.0 mg/kg/injection, schedule: Q01DX001 (ip), vehicle: saline 117 % of control | dose: 25.0 mg/kg/injection, schedule: Q01DX009 (ip), vehicle: saline 95 % of control | dose: 25.0 mg/kg/injection, schedule: Q04DX003 (ip), vehicle: saline 96 % of control | [5] 87 % of control

CN1CCCC(C)(CN2c3ccccc3Sc3ccccc32)C1 (centres undefined)
inactive: [6] 111 % of control | [7] 105 % of control

CCCCCCCCCCCc1cc(=O)n(-c2cc(Cl)ccc2Cl)n1C
inactive: [8] 98 % of control

O=C(O)CCC(=O)c1cccc2ccccc12
inactive: [1] 96 % of control | [6] 105 % of control | dose: 200.0 mg/kg/injection, schedule: Q01DX009 (ip), vehicle: saline 112 % of control | [7] 94 % of control | dose: 400.0 mg/kg/injection, schedule: Q04DX003 (ip), vehicle: saline 103 % of control

Cc1cccnc1OCC(=O)O
inactive: dose: 100.0 mg/kg/injection, schedule: Q04DX002 (ip), vehicle: Klucel (hydroxypropylcellulose) (HPC) 101 % of control | dose: 200.0 mg/kg/injection, schedule: Q04DX002 (ip), vehicle: Klucel (hydroxypropylcellulose) (HPC) 104 % of control | dose: 400.0 mg/kg/injection, schedule: Q04DX002 (ip), vehicle: Klucel (hydroxypropylcellulose) (HPC) 93 % of control

O=C(O)/C(=C/c1ccccc1)c1ccc2ccccc2c1Br
inactive: dose: 100.0 mg/kg/injection, schedule: Q01DX009 (ip), vehicle: Klucel (hydroxypropylcellulose) (HPC) 107 % of control | dose: 100.0 mg/kg/injection, schedule: Q04DX003 (ip), vehicle: other 100 % of control | dose: 200.0 mg/kg/injection, schedule: Q01DX009 (ip), vehicle: Klucel (hydroxypropylcellulose) (HPC) 95 % of control | dose: 200.0 mg/kg/injection, schedule: Q04DX003 (ip), vehicle: other 100 % of control | dose: 400.0 mg/kg/injection, schedule: Q01DX009 (ip), vehicle: Klucel (hydroxypropylcellulose) (HPC) 109 % of control | dose: 400.0 mg/kg/injection, schedule: Q04DX003 (ip), vehicle: other 95 % of control

NC(=S)NNC(N)=S
inactive: dose: 50.0 mg/kg/injection, schedule: Q01DX001 (ip), vehicle: Klucel (hydroxypropylcellulose) (HPC) 90 % of control | dose: 100.0 mg/kg/injection, schedule: Q01DX001 (ip), vehicle: Klucel (hydroxypropylcellulose) (HPC) 97 % of control | dose: 200.0 mg/kg/injection, schedule: Q01DX001 (ip), vehicle: Klucel (hydroxypropylcellulose) (HPC) 100 % of control

O=C1C[C@@H]2OCC=C3C[N+]4([O-])CC[C@]56c7ccccc7N1[C@H]5[C@H]2[C@H]3C[C@@H]64 (some centres undefined)
inactive: dose: 150.0 mg/kg/injection, schedule: Q01DX001 (ip), vehicle: saline 106 % of control

CN(C)C(=O)CCCc1ccc(N(CCCl)CCCl)cc1
inactive: dose: 4.0 mg/kg/injection, schedule: Q12HX018 (ip), vehicle: other 108 % of control | dose: 6.0 mg/kg/injection, schedule: Q12HX018 (ip), vehicle: other 97 % of control | dose: 8.0 mg/kg/injection, schedule: Q12HX018 (ip), vehicle: other 103 % of control | dose: 100.0 mg/kg/injection, schedule: Q01DX001 (ip), vehicle: carboxymethylcellulose (CMC) 123 % of control | dose: 200.0 mg/kg/injection, schedule: Q01DX001 (ip), vehicle: carboxymethylcellulose (CMC) 118 % of control | dose: 400.0 mg/kg/injection, schedule: Q01DX001 (ip), vehicle: carboxymethylcellulose (CMC) 103 % of control

CCCCCCOP1(=O)C=C(C)CC1 (centres undefined)
inactive: [8] 93 % of control | dose: 200.0 mg/kg/injection, schedule: Q04DX003 (ip), vehicle: saline with Tween-80 90 % of control
